Data: patent US8143226B2, “Tyrosine kinase receptor antagonists and methods of treatment for breast cancer” (The Regents of the University of California, priority 2005, dated 2012)

Columns and labels:
Type in all cases: cell-based
IGF-1R = IGF-1R (Homo sapiens, UniProt P08069); experiment: IGF-1R phosphorylation ELISA in MCF-7/HER2-18 cells; set-up: endogenous in cells; host or cells: MCF-7/HER2-18; settings: 3 nM IGF-I 10 min
Procedure: RTK inhibitors were dissolved in DMSO and diluted with culture medium before being added to cells for 1.5 hour at 37° C. The final concentration of DMSO during the incubation was 0.3% . For some studies, cells were also stimulated with 3 nM IGF-I for 10 minutes at 37° C. Reactions were terminated by rapidly aspirating medium and washing cells three times with ice cold PBS. Cells were harvested and solubilized in 50 mM HEPES, 150 mM NaCl, 1% Triton X-100, 1 mM PMSF, and 2 mM vanadate for 1 hour at 4° C. Protein concentrations were determined by BCA assay (Pierce, Rockford, Ill.). […] Briefly, 10 μg lysate protein were added to triplicate wells in a 96-well plate coated with monoclonal antibody to the IGF-IR (IR3; 2 μg/ml), and incubated for 18 hours at 4° C. Plates were washed five times and then HRP-conjugated anti-phosphotyrosine antibody (0.3 μg/ml), diluted in Solution B (50 mM HEPES, pH 7.6, 150 mM NaCl, 0.05% Tween-20, 1 mM PMSF, 2 mM vanadate and 1 mg/ml bacitracin), was added for two hours at 22° C. Plates were washed five times prior to color development with TMB substrate, which was terminated with 1.0 M H3PO4. Values for receptor phosphorylation were determined by measuring absorbance at 450 nm.

MCF-7/neo cells = experiment: Tamoxifen and/or NDGA growth inhibition of MCF-7/neo cells (CyQuant); settings: Homo sapiens, MCF7, 144 h; MCF-7/neo cells, tamoxifen 100 nM, 6 days
Procedure: (§1) Cells were estrogen-starved for three days in DMEM containing 10% charcoal-[…]-stripped FCS (CDSS) prior to their plating in 96 well plates. Cells were plated in 100 μl of the same media, allowed to adhere overnight, and then were switched to DMEM+10% CDSS supplemented with 100 pM estrogen. […] The media and inhibitors were refreshed on day 3, the cultures were harvested on day 6, and a CyQuant assay was performed as described above.

MCF-7/HER2-18 cells = experiment: Tamoxifen and/or NDGA growth inhibition of MCF-7/HER2-18 cells (CyQuant); settings: Homo sapiens, 144 h; MCF-7/HER2-18 cells, tamoxifen 100 nM, 6 days
Procedure: as §1

Sequence of IGF-1R (P08069 31-1367): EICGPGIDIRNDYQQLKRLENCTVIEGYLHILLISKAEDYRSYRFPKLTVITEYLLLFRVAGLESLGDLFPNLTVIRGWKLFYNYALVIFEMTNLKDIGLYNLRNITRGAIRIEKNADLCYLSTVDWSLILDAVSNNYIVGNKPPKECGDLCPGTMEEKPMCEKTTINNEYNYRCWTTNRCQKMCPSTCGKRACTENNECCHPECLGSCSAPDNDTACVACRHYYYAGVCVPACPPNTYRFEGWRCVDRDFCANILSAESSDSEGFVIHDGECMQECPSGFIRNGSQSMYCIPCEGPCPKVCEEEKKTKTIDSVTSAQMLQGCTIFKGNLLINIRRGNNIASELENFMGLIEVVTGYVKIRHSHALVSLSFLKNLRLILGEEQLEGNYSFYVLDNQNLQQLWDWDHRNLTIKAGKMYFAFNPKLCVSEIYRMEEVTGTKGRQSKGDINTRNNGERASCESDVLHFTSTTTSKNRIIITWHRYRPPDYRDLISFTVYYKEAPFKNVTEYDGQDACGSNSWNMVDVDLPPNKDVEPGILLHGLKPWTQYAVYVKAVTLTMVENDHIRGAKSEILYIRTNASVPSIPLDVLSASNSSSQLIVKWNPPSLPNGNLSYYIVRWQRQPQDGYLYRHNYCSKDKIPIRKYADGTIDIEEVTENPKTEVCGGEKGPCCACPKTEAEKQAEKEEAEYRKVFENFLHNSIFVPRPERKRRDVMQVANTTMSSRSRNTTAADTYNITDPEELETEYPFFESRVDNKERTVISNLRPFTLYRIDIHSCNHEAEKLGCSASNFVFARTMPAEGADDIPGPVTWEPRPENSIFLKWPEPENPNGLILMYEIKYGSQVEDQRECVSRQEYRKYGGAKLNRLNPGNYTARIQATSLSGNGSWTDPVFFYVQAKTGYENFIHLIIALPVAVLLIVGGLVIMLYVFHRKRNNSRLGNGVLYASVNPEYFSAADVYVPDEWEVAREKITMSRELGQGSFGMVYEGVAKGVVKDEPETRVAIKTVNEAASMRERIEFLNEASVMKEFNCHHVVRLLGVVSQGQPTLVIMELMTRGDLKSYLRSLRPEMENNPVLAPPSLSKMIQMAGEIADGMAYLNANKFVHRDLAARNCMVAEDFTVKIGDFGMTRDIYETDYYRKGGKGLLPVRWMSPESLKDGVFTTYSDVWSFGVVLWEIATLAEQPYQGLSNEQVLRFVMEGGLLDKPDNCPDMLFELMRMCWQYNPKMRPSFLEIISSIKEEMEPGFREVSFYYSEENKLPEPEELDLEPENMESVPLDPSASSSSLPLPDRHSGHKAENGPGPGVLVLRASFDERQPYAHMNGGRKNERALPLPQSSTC

IGF-1 stimulated phosphorylation of the IGF-1R (IGF-1R) | Compound | inhibition at 0.1 µM (MCF-7/neo cells) [%] | inhibition at 0.1 µM (MCF-7/HER2-18 cells) [%]
only a weak inhibitory effect | COc1cc2ncnc(Nc3ccc(F)c(Cl)c3)c2cc1OCCCN1CCOCC1 [gefitinib, Gefitinib, reference compound] |  | 
 | CC/C(=C(\c1ccccc1)c1ccc(OCCN(C)C)cc1)c1ccccc1 [tamoxifen, reference compound] | > 50 | 24
